Biological target: Citron Rho-interacting kinase (Homo sapiens, UniProt O14578)
Test: TR-FRET Based Assay
Source text: Not found

Sequence of Citron Rho-interacting kinase (O14578 whole entry): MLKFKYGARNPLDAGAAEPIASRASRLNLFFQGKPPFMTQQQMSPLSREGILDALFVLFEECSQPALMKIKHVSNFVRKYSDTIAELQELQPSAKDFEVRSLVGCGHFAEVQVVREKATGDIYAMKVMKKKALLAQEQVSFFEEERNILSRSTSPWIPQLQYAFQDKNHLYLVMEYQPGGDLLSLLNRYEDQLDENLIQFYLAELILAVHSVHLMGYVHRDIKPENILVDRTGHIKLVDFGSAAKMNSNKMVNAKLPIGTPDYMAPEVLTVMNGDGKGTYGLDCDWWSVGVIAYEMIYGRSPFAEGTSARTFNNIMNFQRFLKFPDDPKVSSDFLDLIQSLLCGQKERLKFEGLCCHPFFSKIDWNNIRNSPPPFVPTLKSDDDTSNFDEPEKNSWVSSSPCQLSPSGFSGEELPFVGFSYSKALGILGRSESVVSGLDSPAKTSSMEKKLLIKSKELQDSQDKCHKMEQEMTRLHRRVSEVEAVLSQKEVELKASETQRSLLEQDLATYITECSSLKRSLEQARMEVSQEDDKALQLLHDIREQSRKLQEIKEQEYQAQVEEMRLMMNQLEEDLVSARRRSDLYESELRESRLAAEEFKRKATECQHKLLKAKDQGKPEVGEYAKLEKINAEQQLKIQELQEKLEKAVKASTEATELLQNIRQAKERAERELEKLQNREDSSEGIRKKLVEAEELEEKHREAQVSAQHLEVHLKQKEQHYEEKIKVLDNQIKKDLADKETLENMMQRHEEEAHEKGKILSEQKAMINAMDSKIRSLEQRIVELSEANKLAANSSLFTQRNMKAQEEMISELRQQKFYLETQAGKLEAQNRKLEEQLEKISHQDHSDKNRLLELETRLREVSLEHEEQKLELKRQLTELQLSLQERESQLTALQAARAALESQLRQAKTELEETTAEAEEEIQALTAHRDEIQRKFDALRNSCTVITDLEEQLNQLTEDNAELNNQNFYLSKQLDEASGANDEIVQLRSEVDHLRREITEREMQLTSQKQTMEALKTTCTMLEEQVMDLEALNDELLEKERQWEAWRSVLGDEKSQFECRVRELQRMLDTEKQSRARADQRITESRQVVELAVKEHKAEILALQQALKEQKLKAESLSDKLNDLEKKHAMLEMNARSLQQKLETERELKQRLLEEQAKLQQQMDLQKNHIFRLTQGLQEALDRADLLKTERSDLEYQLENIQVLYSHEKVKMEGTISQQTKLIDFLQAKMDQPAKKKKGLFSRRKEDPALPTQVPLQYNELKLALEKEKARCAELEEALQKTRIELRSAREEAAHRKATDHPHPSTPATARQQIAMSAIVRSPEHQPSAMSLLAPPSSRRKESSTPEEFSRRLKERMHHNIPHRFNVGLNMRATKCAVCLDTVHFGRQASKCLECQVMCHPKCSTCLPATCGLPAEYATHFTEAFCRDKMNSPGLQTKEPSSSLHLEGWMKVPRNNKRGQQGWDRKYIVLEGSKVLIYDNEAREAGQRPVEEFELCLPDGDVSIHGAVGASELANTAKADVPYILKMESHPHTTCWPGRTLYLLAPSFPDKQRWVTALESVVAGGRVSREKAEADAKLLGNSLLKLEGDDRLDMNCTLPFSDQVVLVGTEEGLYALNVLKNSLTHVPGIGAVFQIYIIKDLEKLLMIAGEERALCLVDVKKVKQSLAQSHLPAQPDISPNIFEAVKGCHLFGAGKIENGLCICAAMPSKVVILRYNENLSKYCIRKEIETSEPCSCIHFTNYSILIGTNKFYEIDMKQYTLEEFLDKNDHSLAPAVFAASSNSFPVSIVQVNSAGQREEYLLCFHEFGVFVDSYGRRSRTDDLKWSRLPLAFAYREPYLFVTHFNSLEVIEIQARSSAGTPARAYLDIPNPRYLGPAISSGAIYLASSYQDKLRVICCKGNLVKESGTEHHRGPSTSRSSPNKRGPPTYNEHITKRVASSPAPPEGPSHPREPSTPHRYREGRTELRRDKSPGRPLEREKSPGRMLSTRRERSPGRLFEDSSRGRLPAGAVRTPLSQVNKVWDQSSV

SMILES | IC50 [nM]
CNC(Cc1ccccc1)C(=O)Nc1ccc(-c2ccnc3[nH]ccc23)cc1 (stereo unspecified) [US20250243196, Compound F-121] | 3000
CN(C)C(Cc1ccccc1)C(=O)Nc1ccc(-c2ccnc3[nH]ccc23)cc1 (stereo unspecified) [US20250243196, Compound F-122] | 1500
NC(Cc1ccc(Cl)cc1)C(=O)Nc1ccc(-c2ccnc3[nH]ccc23)cc1 (stereo unspecified) [US20250243196, Compound F-123] | 1290
NC(Cc1ccccc1Cl)C(=O)Nc1ccc(-c2ccnc3[nH]ccc23)cc1 (stereo unspecified) [US20250243196, Compound F-125] | 1770

These reach a lower IC50. Values come first.

IC50 [nM] | SMILES
153 | NC(CC1CCOCC1)C(=O)Nc1ccc(-c2ccnc3[nH]ccc23)cc1 (stereo unspecified) [US20250243196, Compound F-120]
536 | NC(Cc1cccc(Cl)c1)C(=O)Nc1ccc(-c2ccnc3[nH]ccc23)cc1 (stereo unspecified) [US20250243196, Compound F-124]
